Data: US20240271138A1, “METHODS AND COMPOSITIONS FOR MODULATING STING SIGNALING AND INNATE IMMUNE RESPONSES” (The Broad Institute, Inc., priority 2021, published 2024)

Key:
human STING = human STING (Homo sapiens, UniProt Q86WV6); settings: cited from earlier work
T-cells = settings: cited from earlier work
type 1 IFN expression = settings: cited from earlier work
[1] = test system: STING LBD fusion proteins (PH-S139, 2XFYVE-S139); assay: mNG fluorescence and immunoblots of organelle-targeted STING LBD fusion proteins; assay type: cell-based, human; settings: nigericin stimulation
Description: Upper, concentrated STING is able to mediate TBK1 for trans-phosphorylation. Lower, diluted STING is unable to mediate TBK1's transphosphorylation.

STING-HA = STING-HA degradation in 293T stably expressing STING-HA, HA intracellular staining; assay type: cell-based, human; settings: 293T STING-HA; cGAMP 6 hours; pre-treatment with U18666A; FIGS. 11G-11H
Description: FIGS. 11A-11H show interaction of ESCRT components with STING. FIGS. 11A-11D show immunofluorescence of CD63, HGS, and STING (FIG. 11A); p62, HGS, and STING (FIG. 11B); LC3B, HGS, and STING (FIG. 11C); p62, CD63, and STING (FIG. 11D) in 293T stably expressing STING-HA and non-stimulated, relative to FIGS. 4A-4D. […] Dashed box represents the cropped region enlarged in the right panel for the +cGAMP condition. Scale bar is 10 μm. One representative field of n≥3 independent fields in n=3 independent experiments. […] One representative experiment of n=3 independent experiments with n=2 technical replicates per experiment. […] Each dot represents an individual replicate **** p<0.0001.
Data was analyzed with FlowJo (BD).

STING = assay: Immunoblots of U937 and STING-HA 293T cells treated with VPS34-IN1 and cGAMP; assay type: cell-based, human; settings: 1 μM VPS34-IN1
Description: (§1) FIGS. 22A-22F show endosome localization and J domain activity are essential for DNAJC13's function on STING.

DNAJC13 = assay: Immunofluorescence of DNAJC13 in 293T cells; assay type: cell-based, human; settings: 1 μm VPS34-IN1, FIG. 22B
Description: as §1

[2] = sgCTRL cells, cGAMP stimulation, FIGS. 22D-22E

human STING, sequence (Q86WV6 whole entry H232R): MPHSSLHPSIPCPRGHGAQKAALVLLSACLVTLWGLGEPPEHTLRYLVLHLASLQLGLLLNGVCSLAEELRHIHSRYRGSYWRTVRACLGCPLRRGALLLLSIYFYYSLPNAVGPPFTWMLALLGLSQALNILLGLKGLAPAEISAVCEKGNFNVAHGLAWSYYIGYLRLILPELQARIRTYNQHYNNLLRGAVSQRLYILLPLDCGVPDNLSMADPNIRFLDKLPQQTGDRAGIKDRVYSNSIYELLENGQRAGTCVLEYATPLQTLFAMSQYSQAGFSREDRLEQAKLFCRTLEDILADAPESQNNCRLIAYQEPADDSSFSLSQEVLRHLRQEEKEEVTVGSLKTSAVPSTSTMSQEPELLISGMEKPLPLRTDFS

## Cc1ccc2c(=O)c3cccc(CC(=O)O)c3oc2c1C [DMXAA, 6-dimethylxanthenone-4-acetic acid]
Human STING
  binding to human STING versus murine STING: substantially weaker binding to human STING in comparison to murine STING
T-cells
  apoptosis in T-cells: elicits stress pathways that induce apoptosis in T-cells
Type 1 IFN expression
  type 1 IFN expression: induces type 1 IFN expression

## CO[C@@H]1C[C@@H](C[C@H]2CC[C@H](C)[C@H]([C@@H](C)C(=O)O)O2)O[C@]2(O[C@](C)([C@H]3CC[C@@](C)([C@@H]4O[C@@H]([C@H]5O[C@@](O)(CO)[C@H](C)C[C@@H]5C)C[C@@H]4C)O3)C[C@H]2C)[C@@H]1C [Nigericin]
[1]; FIG. 17E
  PH-S139 localization: PH-S139 localization change was observed to dispersed vesicles
[1]; FIG. 17F
  STING activation (phosphorylation) of fusion proteins: STING activation was observed in PH-S139 and 2XFYVE-S139 but not with mitochondria localized TomS33-S139 or WT STING

## CCN(CC)CCO[C@H]1CC[C@@]2(C)C(=CC[C@@H]3[C@@H]2CC[C@]2(C)C(=O)CC[C@@H]32)C1 [U18666A]
STING-HA
  STING degradation (STING-HA MFI): marked reduction in STING degradation

## CC(C)(O)CNc1ncc(-c2ccnc(Nc3ccnc(Cl)c3)n2)c(CC2CC2)n1 [VPS34-IN1]
STING; STING-HA 293T, digitonin and cGAMP, FIG. 22E
  STING induced autophagy: greatly enhanced
STING; [2]
  STING degradation: enhancement of STING degradation
  STING phosphorylation: strong boost of STING phosphorylation
DNAJC13
  DNAJC13 endosomal localization: clear diffusion of DNAJC13 from the endosome

## cyclic GMP-AMP [cGAMP]
T-cells; exogenous cGAMP
  T-cell proliferation and T-cell death: impairs T-cell proliferation and can cause T-cell death
